The values that follow come from patent publication US8299065B2, “Antibacterial condensed thiazoles” (Biota Europe Ltd., priority 2007, dated 2012).

Data set [1] relates to Enterococcus faecalis ATCC 29212. The data set can be described thus: MIC testing against Enterococcus faecalis ATCC 29212. It counts as cell-based. The conditions noted are these: ATCC29212, read-out: MICs against Enterococcus faecalis, Activity.
The subject of data set [2] is Streptococcus agalactiae ATCC 13813. Put plainly: MIC testing, various bacteria. It counts as cell-based. The conditions noted are these: ATCC13813. The protocol: (§1) Minimum Inhibitory Concentration (MIC) Testing
(§2) Compounds of this invention were tested for antimicrobial activity by susceptibility testing in liquid or on solid media. MICs for compounds against each strain were determined by the broth microdilution or agar dilution method according to the guidelines of the Clinical Laboratories and Standards Institute, formerly the National Committee for Clinical Laboratory Standards (Clinical Laboratories and Standards Institute. Methods for Dilution Antimicrobial Susceptibility Tests for Bacteria That Grow Aerobically; Approved Standard—Seventh Edition. Document M7-A7. CLSI, Wayne, Pa., 2006; Clinical Laboratories and Standards Institute. Methods for Antimicrobial Susceptibility Testing of Anaerobic Bacteria; Approved Standard—Sixth Edition. Document M11-A6. CLSI, Wayne, Pa., 2004).
(§3) Some of the Example compounds were also tested for activity against other bacterial species.

Data set [3] concerns Streptococcus pyogenes ATCC 51339. Put plainly: MIC testing, various bacteria. Format: cell-based. The conditions noted are these: ATCC51339. The protocol:
as §1, §2, §3

Data set [4] concerns Streptococcus pneumoniae ATCC 49619. The data set can be described thus: MIC testing, various bacteria. Format: cell-based. The conditions noted are these: ATCC49619. As for the experimental part:
as §1, §2, §3

Data set [5] has as its system Haemophilus influenzae ATCC 49247. Put plainly: MIC testing, various bacteria. Format: cell-based. The conditions noted are these: ATCC49247. As for the experimental part: as §1, §2, §3
In data set [6] the test system is Enterococcus faecalis (VRE) ATCC 51299. The data set can be described thus: MIC testing, various bacteria. Format: cell-based. As for the experimental part: as §1, §2, §3
In data set [7] the test system is Enterococcus faecium (VRE) ATCC 700221. The data set can be described thus: MIC testing, various bacteria. It counts as cell-based. As for the experimental part:
as §1, §2, §3

For data set [8], the system named is Staphylococcus aureus ATCC 29213. The data set can be described thus: MIC testing, various bacteria. It counts as cell-based. The conditions noted are these: ATCC29213. As for the experimental part:
as §1, §2, §3

The test system of data set [9] is Staphylococcus epidermidis ATCC 12228. The data set can be described thus: MIC testing, various bacteria. The conditions noted are these: ATCC12228. It counts as cell-based. As for the experimental part: as §1, §2, §3
Data set [10] has as its system Moraxella catarrhalis ATCC 25240. Put plainly: MIC testing, various bacteria. The conditions noted are these: ATCC25240. It counts as cell-based. As for the experimental part: as §1, §2, §3
Data set [11] deals with Streptococcus mutans ATCC 35668. The data set can be described thus: MIC testing, various bacteria. Format: cell-based. The conditions noted are these: ATCC35668. As for the experimental part: as §1, §2, §3
Data set [12] has as its system Staphylococcus haemolyticus ATCC 29970. The data set can be described thus: MIC testing, various bacteria. The conditions noted are these: ATCC29970. It counts as cell-based. The protocol:
as §1, §2, §3

Data set [13] deals with Streptococcus pneumoniae clinical isolates. The data set can be described thus: MIC testing, clinical isolates. The conditions noted are these: 10 clinical isolates. It counts as cell-based. As for the experimental part: as §2, with “Minimum Inhibitory Concentration (MIC) Testing Compounds” for “Compounds”, “2004). Some of the Example compounds were also tested for activity against clinical isolates of various bacterial species.” for “2004).”

For data set [14], the system named is Staphylococus aureus clinical isolates. Put plainly: MIC testing, clinical isolates. Format: cell-based. The conditions noted are these: 10 clinical isolates. The protocol:
as §2, with “Minimum Inhibitory Concentration (MIC) Testing Compounds” for “Compounds”, “2004). Some of the Example compounds were also tested for activity against clinical isolates of various bacterial species.” for “2004).”

For data set [15], the system named is Propionibacterium acnes clinical isolates. Put plainly: MIC testing, clinical isolates. It counts as cell-based. The conditions noted are these: 5 clinical isolates. The protocol: as §2, with “Minimum Inhibitory Concentration (MIC) Testing Compounds” for “Compounds”, “2004). Some of the Example compounds were also tested for activity against clinical isolates of various bacterial species.” for “2004).”

Data set [16] relates to Enterococcus faecium clinical isolates. Put plainly: MIC testing, clinical isolates. Format: cell-based. The conditions noted are these: 10 clinical isolates. The protocol:
as §2, with “Minimum Inhibitory Concentration (MIC) Testing Compounds” for “Compounds”, “2004). Some of the Example compounds were also tested for activity against clinical isolates of various bacterial species.” for “2004).”

Data set [17] relates to Staphylococcus epidermidis clinical isolates. The data set can be described thus: MIC testing, clinical isolates. It counts as cell-based. The conditions noted are these: 10 clinical isolates. As for the experimental part:
as §2, with “Minimum Inhibitory Concentration (MIC) Testing Compounds” for “Compounds”, “2004). Some of the Example compounds were also tested for activity against clinical isolates of various bacterial species.” for “2004).”

Data set [18] relates to Streptococcus pyogenes clinical isolates. Put plainly: MIC testing, clinical isolates. Format: cell-based. The conditions noted are these: 10 clinical isolates. The protocol: as §2, with “Minimum Inhibitory Concentration (MIC) Testing Compounds” for “Compounds”, “2004). Some of the Example compounds were also tested for activity against clinical isolates of various bacterial species.” for “2004).”

Data set [19] has as its system Enterococcus faecalis clinical isolates. Put plainly: MIC testing, clinical isolates. It counts as cell-based. The conditions noted are these: 10 clinical isolates. The protocol: as §2, with “Minimum Inhibitory Concentration (MIC) Testing Compounds” for “Compounds”, “2004). Some of the Example compounds were also tested for activity against clinical isolates of various bacterial species.” for “2004).”

≈ marks a conversion by molar mass, not a printed value.

Turning to `CCNC(=O)Nc1nc2cc(-c3ccn(C)c(=O)c3)ccc2s1` [Example 3, 1-Ethyl-3-(5-(1-methyl-2-oxo-1,2-dihydro-pyridin-4-yl)-benzothiazol-2-yl)urea], the MIC in data set [1] is 0.25 to 1 µg/mL (≈ 0.761 to 3.05 µM); in [2], 0.25 to 1 µg/mL (≈ 0.761 to 3.05 µM); in data set [3], 0.25 to 1 µg/mL (≈ 0.761 to 3.05 µM); in data set [4] it was below 0.25 µg/mL; in data set [5], 2 to 16 µg/mL (≈ 6.09 to 48.7 µM); in data set [6] it was 2 to 16 µg/mL (≈ 6.09 to 48.7 µM). The MIC in data set [7] is 2 to 16 µg/mL (≈ 6.09 to 48.7 µM); in data set [8], 0.25 to 1 µg/mL (≈ 0.761 to 3.05 µM); in [9], 0.25 to 1 µg/mL (≈ 0.761 to 3.05 µM); in data set [10], 0.25 to 1 µg/mL (≈ 0.761 to 3.05 µM); in data set [11] it was 0.25 to 1 µg/mL (≈ 0.761 to 3.05 µM); in data set [12] it was 0.25 to 1 µg/mL (≈ 0.761 to 3.05 µM).
Take `CCNC(=O)Nc1nc2cc(-c3cc(C)n(Cc4cccnc4)c(=O)c3)c(F)cc2s1` [Example 49, 1-ethyl-3-(6-fluoro-5-(6-methyl-2-oxo-1-(pyridin-3-ylmethyl)-1,2-dihydropyridin-4-yl)benzo[d]thiazol-2-yl)urea]: the MIC90 turned out to be 0.015 µg/mL (≈ 0.0343 µM) in data set [13]; 0.06 µg/mL (≈ 0.137 µM) in [14]; 1 µg/mL (≈ 2.29 µM) in data set [15] (Cutibacterium acnes); 0.5 µg/mL (≈ 1.14 µM) in data set [16]; 0.03 µg/mL (≈ 0.0686 µM) in [17]; 0.25 µg/mL (≈ 0.571 µM) in [18]. This compound came in with an MIC90 in data set [19] of 0.25 µg/mL (≈ 0.571 µM). Also, the MIC range in data set [13] was 0.008 to 0.03 µg/mL; in data set [14], 0.03 to 0.12 µg/mL; in [15], 1 µg/mL (≈ 2.29 µM); in data set [16] it was 0.25 to 0.5 µg/mL; in data set [17] it was 0.008 to 0.06 µg/mL; in data set [18] it was 0.12 to 0.5 µg/mL. Moreover, in data set [19], the MIC range was in the range of 0.06 to 0.5 µg/mL. The MIC in [1] fell in the range of 0.25 to 1 µg/mL (≈ 0.571 to 2.29 µM).
Take `CCNC(=O)Nc1nc2cc(-c3cccnc3)c(F)cc2s1` [Example 4, 1-Ethyl-3-(6-fluoro-5-pyridin-3-yl-benzothiazol-2-yl)-urea]: the melting point turned out to be 199.1 °C. Besides, the MIC in [1] lay in the range of 0.25 to 1 µg/mL (≈ 0.79 to 3.16 µM).
Take `CCNC(=O)Nc1nc2cc(-c3cc(C)n(C(C)c4ccccn4)c(=O)c3)ccc2s1` (stereo not shown) [Example 36, 1-ethyl-3-(5-(6-methyl-2-oxo-1-(1-(pyridin-2-yl)ethyl)-1,2-dihydropyridin-4-yl)benzo[d]thiazol-2-yl)urea]: the MIC in data set [1] is 2 to 16 µg/mL (≈ 4.61 to 36.9 µM).
Still for that read-out and setting: under `CCNC(=O)Nc1nc2cc(-c3ccc(CC(=O)NC)nc3)ccc2s1` [Example 2, 2-{5-[2-(3-Ethyl-ureido)-benzothiazol-5-yl]-pyridin-2-yl}-N-methyl-acetamide] stands 2 to 16 µg/mL (≈ 5.41 to 43.3 µM); under `CCNC(=O)Nc1nc2cc(-c3ccc4nncn4c3)ccc2s1` [Example 5, 1-(5-([1,2,4]triazolo[4,3-a]pyridin-6-yl)benzo[d]thiazol-2-yl)-3-ethylurea], 2 to 16 µg/mL (≈ 5.91 to 47.3 µM); under `CCNC(=O)Nc1nc2cc(-c3cc(C)n(CCO)c(=O)c3)ccc2s1` [Example 32, 1-ethyl-3-(5-(1-(2-hydroxyethyl)-6-methyl-2-oxo-1,2-dihydropyridin-4-yl)benzo[d]thiazol-2-yl)urea], 2 to 16 µg/mL (≈ 5.37 to 43 µM).
Still for that read-out and setting: the figure for `CCNC(=O)Nc1nc2cc(-c3ccc(CC(=O)NC)nc3)c(F)cc2s1` [Example 68, 2-{5-[2-(3-ethyl-ureido)-6-fluoro-benzothiazol-5-yl]-pyridin-2-yl}-N-methyl-acetamide] is 2 to 16 µg/mL (≈ 5.16 to 41.3 µM).
